Patent publication US8658797B2, “Asymmetric ureas and medical uses thereof” (Helsinn Healthcare SA, priority 2011, dated 2014)

Assays:
[1] = biological target: T1, GHSR-1a (Homo sapiens, UniProt Q92847); assay: Calcium FLIPR assay, GHSR-1a agonism; format: cell-based; details: HEK293/GHSR1a cell line; read-out: EC50 FLIPR against Activity (EC50 part of μM/Emax)
T1 construct: expressed in transfected cells; host or cells: HEK293
Procedure: (§1) The intracellular calcium assay was carried out in a 384-well format FLIPR™ (Molecular Device) HEK293/GHSR1a cell line. Cells were seeded 24 hr prior to the experiments at an optimal density per well. Preincubation with selected calcium dye lasted for 30-60 min at room temperature or 37° C. Test compounds, dissolved in DMSO, were added at the appropriate time and incubated for 15 min followed by the addition of ghrelin with FlexStation or FLIPR. Relative fluorescence was monitored by the FLIPR™ Molecular Device. EC50 and IC50 values were estimated from dose-response data using GraphPad Prism software. To check for GHSR-1a agonism the compound was added at t=20 sec. and the calcium response was followed for 2 minutes. To check for GHSR-1a antagonism the compound and Ghrelin (10 nM) were added to the cells at t=20 sec. and the calcium response was measured for 2 minutes. The potency of the antagonist was calculated by its ability to reduce the ghrelin response. Dose-response curves were made for relevant antagonists.

[2] = biological target: T1, GHSR-1a; assay: Calcium FLIPR assay, GHSR-1a antagonism (reduction of ghrelin response); format: cell-based; details: HEK293/GHSR1a cell line; ghrelin 10 nM; read-out: IC50 FLIPR antagonist Activity
Procedure: as §1

[3] = test system: Male C57BL/6J mice; assay: Evaluation of GHSR1a antagonists on food intake test in mouse; format: in vivo; details: for Mouse Food Intake effect: NSE: not significant effect
Procedure: Male C57BL/6J mice, 18-22 g body weight, were fasted overnight (16 h before compound administration) and placed in a regular light dark cycle (6:00-18:00 light/18:00-6:00 dark). After 1 wk acclimation, animals were sorted into two groups (n=6 each, 2 per cage) based on body weight. Animals in group one were be treated with vehicle and animals in group 2 were treated with the test agent (n=6 for each group). The cumulative food intake was evaluated at 1, 2, 4, 8 and 24 hrs after drug or vehicle treatment. Food intake was measured by subtracting uneaten food from the initial premeasured food.

[4] = Mus musculus, ip, 30 mg/kg i.p., at 1 hr
[5] = Mus musculus, ip, 10 mg/kg i.p., at 1 hr

T1 sequence (Q92847 whole entry): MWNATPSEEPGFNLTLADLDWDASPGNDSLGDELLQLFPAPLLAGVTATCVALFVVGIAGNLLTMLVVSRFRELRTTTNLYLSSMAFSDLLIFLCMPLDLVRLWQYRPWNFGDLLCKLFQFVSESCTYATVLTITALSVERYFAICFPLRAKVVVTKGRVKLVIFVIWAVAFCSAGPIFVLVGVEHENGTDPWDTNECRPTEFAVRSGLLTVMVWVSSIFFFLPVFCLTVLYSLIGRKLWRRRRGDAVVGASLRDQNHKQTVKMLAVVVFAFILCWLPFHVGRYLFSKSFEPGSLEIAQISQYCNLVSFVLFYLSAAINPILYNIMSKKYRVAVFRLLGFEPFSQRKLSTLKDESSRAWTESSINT

Row | Structure (SMILES) | EC50 [1] [µM] | IC50 [2] [µM] | Mouse Food Intake effect ([3]; 10 mg/kg i.p.) | inhibition in vivo at 10 mg/kg [3, 5] [%] | also measured
1 | CCN(C(=O)NC(C)c1cccc2ccccc12)C1CCN(C)CC1 (stereo not drawn) | – | 0.32 | – | – | Mouse Food Intake, activity up to ([3]; 30 mg/kg i.p.): ≤ 24 h; inhibition in vivo at 30 mg/kg [3, 4]: 28%
2 | CC(NC(=O)N(C)C1CCN(C)CC1)c1cccc(Cl)c1Cl (stereo not drawn) | 0.009 | 0.12 | NSE (10 mg/kg) | – | –
3 | CN1CCC(N(C)C(=O)NC(CO)c2cccc3ccccc23)CC1 (stereo not drawn) | 0.49 | 0.91 | – | – | inhibition in vivo at 10 mg/kg ([3]; Mus musculus, ip, 10 mg/kg i.p., 'at to 24 hrs'): 27%
4 | CC(NC(=O)N(Cc1ccccc1)C1CCN(C)CC1)c1cccc(Cl)c1Cl (stereo not drawn) | 16.8 | 0.022 | – | 47 | –
5 | CCN(C(=O)NC(CCc1cccc(OCc2cccnc2)c1)c1cccc2ccccc12)C1CCN(C)CC1 (stereo not drawn) | 18.7 | 0.075 | – | 74 | Mouse Food Intake, activity up to ([3]; 10 mg/kg i.p.): ≤ 24 h
6 | COc1ccc(C(CO)NC(=O)N(C)C2CCN(C)CC2)c2ccccc12 (stereo not drawn) | 0.02 | 0.066 | – | 47 | –
7 | CC(NC(=O)N(Cc1cccc(F)c1)C1CCN(C)CC1)c1cccc(Cl)c1Cl (stereo not drawn) | – | 0.065 | – | 44 | –
8 | CN1CCC(N(C)C(=O)NC(COCc2ccccc2)c2cccc(Cl)c2Cl)CC1 (stereo not drawn) | – | 0.07 | – | 40 | Mouse Food Intake effect ([3]; 3 mg/kg i.p.): NSE; Mouse Food Intake, activity up to ([3]; 10 mg/kg i.p.): ≤ 4 h; Mouse Food Intake, activity up to ([3]; 30 mg/kg i.p.): ≤ 2 h; inhibition in vivo at 30 mg/kg [3, 4]: 50%
9 | CC(NC(=O)N(Cc1ccccc1Cl)C1CCN(C)CC1)c1cccc(Cl)c1Cl (stereo not drawn) | – | 0.038 | – | 95 | Mouse Food Intake, duration of activity ([3]; 3 mg/kg i.p., after 1 hr): no activity up to follow hrs; Mouse Food Intake, activity up to ([3]; 10 mg/kg i.p.): ≤ 24 h; Mouse Food Intake, activity up to ([3]; 30 mg/kg i.p.): ≤ 24 h; inhibition in vivo at 3 mg/kg ([3]; Mus musculus, ip, 3 mg/kg i.p., at 1 hr): 39%; inhibition in vivo at 30 mg/kg ([3]; Mus musculus, ip, 30 mg/kg i.p., at 2 hr): 70%
10 | COc1ccc(C(C)NC(=O)N(C)C2CCN(C)CC2(C)C)c(Cl)c1Cl (stereo not drawn) | 0.01 | 0.003 | NSE (10 mg/kg) | – | –
11 | COc1cccc(CN(C(=O)N[C@H](C)c2cccc(Cl)c2Cl)C2CCN(C)CC2C)c1 (stereo partly drawn) | – | 0.005 | NSE (10 mpk) | – | –
12 | COc1ccc(C(C)NC(=O)N(OC)C2CCN(C)CC2)c(Cl)c1Cl (stereo not drawn) | 0.0082 | 0.004 | – | – | –
13 | COc1ccc(C(C)NC(=O)N(O)C2CCN(C)CC2)c2ccccc12 (stereo not drawn) | 0.0021 | – | – | – | –

More lines, main results first:

Row | EC50 [1] [µM] | IC50 [2] [µM] | Structure (SMILES) | Mouse Food Intake effect ([3]; 10 mg/kg i.p.) | inhibition in vivo at 10 mg/kg [3, 5] [%] | also measured
14 | 0.009 | 0.021 | C[C@@H](NC(=O)N(C)C1CCN(C)CC1(C)C)c1cccc2ccccc12 (stereo partly drawn) | – | – | Mouse Food Intake, activity up to ([3]; 30 mg/kg i.p.): ≤ 8 h; inhibition in vivo at 30 mg/kg ([3]; Mus musculus, ip, 30 mg/kg i.p., at 4 h): 47%
15 | 0.006 | 0.005 | C[C@@H](NC(=O)N(Cc1ccccc1)C1CCN(C)CC1(C)C)c1cccc2ccccc12 (stereo partly drawn) | – | – | Mouse Food Intake effect ([3]; 30 mg/kg i.p.): NSE (30 mg/kg)
16 | 0.03 | 0.04 | COc1ccc(C(C)NC(=O)N(C)C2CCN(C)CC2)c2ccccc12 (stereo not drawn) | NSE | – | Mouse Food Intake, activity up to ([3]; 30 mg/kg i.p.): ≤ 24 h; Mouse Food Intake % increase food intake ([3]; 30 mg/kg i.p., at 1 hr): 70%
17 | – | 0.012 | CC(NC(=O)N(C)C1CCN(C)CC1(C)C)c1cccc(Cl)c1Cl (stereo not drawn) | – | 26 | –
18 | – | 0.005 | COc1cccc(CN(C(=O)NC(C)c2cccc(Cl)c2Cl)C2CCN(C)CC2(C)C)c1 (stereo not drawn) | NSE (10 mg/kg) | – | –
19 | 0.01 | 0.012 | COc1ccc(C(C)NC(=O)N(C)C2CCN(C)CC2(C)C)c2ccccc12 (stereo not drawn) | NSE (10 mg/kg) | – | –
20 | – | 0.007 | CC(NC(=O)N(Cc1ccccc1F)C1CCN(C)CC1(C)C)c1cccc(Cl)c1Cl (stereo not drawn) | NSE (10 mg/kg) | – | –
